From patent US20040219112A1, “Method of whitening teeth, tooth whitening composition and tooth whitening set” (priority 2001, published 2004)

Legend:
[1] = Whitening of extracted human tooth enclosed in absorbent cotton impregnated with liquid compound (100%), L*a*b* (CIE) whiteness; details: compound conc. 100%; for Effect (2): prolonged effect, whiteness (Δ|L|+Δ|b|) of the tooth: measured after immersion in water (10 ml, 37° C.) for 1 hour; for Effect (1): whiteness (Δ|L|+Δ|b|) of the tooth: measured immediately after immersion in the compound for 1 hour at 37° C.; for Result (prolonged effect rating): rating of prolonged effect after 1 hour in water
Description: (§1) An experiment was conducted as follows with an extracted human tooth which had previously been examined for L*a*b* values (CIE). The tooth was enclosed in absorbent cotton impregnated with a liquid compound (in 100% concentration) shown below, and the resulting object was allowed to stand at 37° C. for 1 hour in a closed glass bottle. The tooth was examined again for L*a*b* values (CIE). The ΔL and Δb values measured before and after treatment were used to calculate the whiteness (Δ|L|+Δ|b|) of the tooth, which is a measure of the effect (1).
(§2) The tooth which had been processed as mentioned above was again allowed to stand at 37° C. for 1 hour in a closed glass bottle containing 10 ml of water at 37° C. Then, the tooth was examined again for L*a*b* values (CIE). The ΔL and Δb values measured before and after treatment were used to calculate the whiteness (Δ|L|+Δ|b|) of the tooth, which is a measure of the prolonged effect (2).

[2] = Whitening of extracted human tooth enclosed in PP non-woven sheet coated with gel of 50% whitening compound, L*a*b* (CIE) whiteness; set-up: key to Effect (3): whiteness (Δ|L|+Δ|b|) of the tooth / Effect (4): prolonged effect, whiteness (Δ|L|+Δ|b|) of the tooth: whiteness = Δ|L|+Δ|b| (CIE L*a*b*), change before vs after treatment; details: gel of 50% compound; for Effect (4): prolonged effect, whiteness (Δ|L|+Δ|b|) of the tooth / Effect (3): whiteness (Δ|L|+Δ|b|) of the tooth: 0.5% jellan gum, 49.5% water; for Effect (4): prolonged effect, whiteness (Δ|L|+Δ|b|) of the tooth: measured after immersion in water (10 ml, 37° C.) for 1 hour; for Effect (3): whiteness (Δ|L|+Δ|b|) of the tooth: measured immediately after 1 hour at 37° C.; for Result (prolonged effect rating): rating of prolonged effect after 1 hour in water
Description: as §1, with “a sheet of non-woven fabric of PP coated” for “absorbent cotton impregnated”, “gel composed of 50% of the whitening” for “liquid”, “specified” for “(in 100% concentration) shown”, “below, 0.5% of jellan gum, and 49.5% of water,” for “below,”, “(3).” for “(1).”
as §2, with “(4).” for “(2).”

Molecule	Effect (2): prolonged effect, whiteness (Δ|L|+Δ|b|) of the tooth [1]	Effect (1): whiteness (Δ|L|+Δ|b|) of the tooth [1]	Result (prolonged effect rating) [1]	Effect (4): prolonged effect, whiteness (Δ|L|+Δ|b|) of the tooth [2]	Effect (3): whiteness (Δ|L|+Δ|b|) of the tooth [2]	Result (prolonged effect rating) [2]
CC(O)CO (stereo not drawn) [Propylene glycol]	2.8	8.4	⊚ (⊚ denotes a significant prolonged effect with a value larger than 1)	1.0	1.0	⊚ (⊚ denotes a significant prolonged effect with a value larger than 1)
PEG #300	3.7	10.7	⊚ (⊚ denotes a significant prolonged effect with a value larger than 1)	0.8	1.8	◯ (◯ denotes a prolonged effect with a value larger than 0.5)
CCO [Ethanol]	3.0	12.8	⊚ (⊚ denotes a significant prolonged effect with a value larger than 1)	1.9	1.5	⊚ (⊚ denotes a significant prolonged effect with a value larger than 1)
Polyethylene glycol #600 [PEG #600]	0.6	12.0	◯ (◯ denotes a prolonged effect with a value larger than 0.5)	0.8	0.7	◯ (◯ denotes a prolonged effect with a value larger than 0.5)
Polyethylene glycol #200 [PEG #200]	4.8	12.5	⊚ (⊚ denotes a significant prolonged effect with a value larger than 1)	0.9	0.6	◯ (◯ denotes a prolonged effect with a value larger than 0.5)
CC(C)O [Isopropyl alcohol]	8.3	15.8	⊚ (⊚ denotes a significant prolonged effect with a value larger than 1)	0.5	1.1	◯ (◯ denotes a prolonged effect with a value larger than 0.5)
OCCO [Ethylene glycol]	2.6	9.3	⊚ (⊚ denotes a significant prolonged effect with a value larger than 1)	0.7	1.6	◯ (◯ denotes a prolonged effect with a value larger than 0.5)
OCCOCCO [Diethylene glycol]	2.6	14.4	⊚ (⊚ denotes a significant prolonged effect with a value larger than 1)	1.1	1.3	⊚ (⊚ denotes a significant prolonged effect with a value larger than 1)
Polyethylene glycol #400 [PEG #400]	1.5	8.1	⊚ (⊚ denotes a significant prolonged effect with a value larger than 1)	0.6	0.7	◯ (◯ denotes a prolonged effect with a value larger than 0.5)
CC(O)CCO (stereo not drawn) [1,3-butylene glycol]	5.6	11.3	⊚ (⊚ denotes a significant prolonged effect with a value larger than 1)	0.5	0.9	◯ (◯ denotes a prolonged effect with a value larger than 0.5)
